This is an account of results in patent US5854252A, “Dihalotriazolopyrimidine derivatives” (Shell Internationale Research Maatschappij B.V., priority 1993, dated 1998).

≈ marks a conversion by molar mass, not a printed value. Bounds are passed on as bounds.

Experiment [1] relates to Pseudocercosporella herpotrichoides. Description: MIC by serial dilution, Example 55, Pseudocercosporella herpotrichoides. The format is cell-based. Particulars: Oculimacula yallundae; microtitre plates, 20° C., 6-8 days. The procedure:
(§1) The MIC (Minimum Inhibition Concentration)-values were determined by serial dilution tests using 48-well microtitre plates. The dilution of the test compounds in the nutrient solution and the distribution to the wells were carried out by a TECAN RSP 5000 robotic sample processor.
(§2) For preparation of the nutrient solution, V8 juice (Trade Mark) was neutralised with calcium carbonate and centrifuged. The supernatant was diluted with distilled water (1:5) to the final concentration.
(§3) The fungi (Alternaria solani, Botrytis cinerea, Pseudocercosporella herpotrichoides, Micronectriella nivalis, Gaeumannomyces graminis) were added into the wells as a droplet of spore suspension. The microtitre plates were then incubated at 20° C. for 6-8 days. The MIC-value, which was defined to be the lowest concentration in the dilution series without mycelial growth, was determined by visual inspection of the plates.

For experiment [2], the system named is Gaeumannomyces graminis. Description: MIC by serial dilution, Example 55, Gaeumannomyces graminis. The format is cell-based. Particulars: microtitre plates, 20° C., 6-8 days. The protocol: as §1, §2, §3
Experiment [3] has as its system Pseudocercosporella herpotrichoides. Description: Activity against wheat eyespot in-vitro (PHI), Example 53(j). The format is cell-based. Particulars: 50 ppm, 12 days at 20° C. The protocol:
This test measures the in vitro activity of compounds against the fungus causing wheat eyespot. The test compound is dissolved or suspended in acetone and is added into 4 ml aliquots of half strength Potato Dextrose Broth dispensed in 25-compartment petri dishes to give a final concentration of 50 ppm compound and 2.5% acetone. Each compartment is inoculated with a 6 mm diameter plug of agar/mycelium taken from a 14 day old culture of P. herpotrichoides. Plates are incubated at 20° C. for 12 days until the assessment of mycelial growth. The extent of disease control in all the above tests is expressed as a rating compared with either an untreated control or a diluent-sprayed-control, according to the criteria: […]

The subject of experiment [4] is Micronectriella nivalis. Description: MIC by serial dilution, Example 55, Micronectriella nivalis. The format is cell-based. Particulars: microtitre plates, 20° C., 6-8 days. The procedure:
as §1, §2, §3

The subject of experiment [5] is Puccinia arachidis. Description: Field pot test with Puccinia arachidis on peanuts. The format is in vivo. Particulars: topical, 456 h, 500 μg/ml spray, 1000 l/ha, 19 days after treatment, Abbott formula, read-out: % efficacy Puccinia arachidis. The procedure:
15 seeds of peanuts were sown in pots filled with a soil substrate. When the plants have developed 4 true leaves the fungicides and the test compounds were applied using a hand sprayer. The test compounds were applied at a concentration of 500 μg/ml in a […] containing 10% acetone and 0.05% Triton X 155 in water. The total amount of […] corresponded to 1000 l/ha. Six replicates per treatment were used. 2 Days after treatment the pots were exposed to peanut plants in the field on which the fungus, Puccinia arachidis, had formed sporulating pustules on the leaves. The assessment was carried out 19 days after treatment by estimating the percentage of infected leaf area. The % efficacy was calculated using the Abbott formula.

For experiment [6], the system named is Cercospora arachidicola. As to the kind of experiment: Field pot test with Cercospora arachidicola on peanuts. The format is in vivo. Particulars: Mycosphaerella arachidis, topical, 360 h, 500 μg/ml spray, 1000 l/ha, 15 days after treatment, Abbott formula, read-out: % efficacy Cercospora arachidicola. The procedure:
15 Seeds of peanuts were sown in pots filled with a soil substrate. When the plants have developed 4 true leaves (approx. 12-14 days after seeding) the fungicides and the test compounds were applied using a hand sprayer. The test compounds were applied at a concentration of 500 μg/ml in a […] containing 10% acetone and 0.05% Triton X 155 in water. The total amount of […] corresponded to 1000 l/ha. Six replicates (pots) per treatment were used. 2 days after treatment the pots were exposed to peanut plants in the field on which the fungus, Cercospora arachidicola, had formed sporulating lesions. The assessment was carried out 15 days after treatment by estimating the percentage of infected leaf area. The % efficacy was calculated using the Abbott formula.

For the compound `Fc1cccc(-c2c(Cl)nc3ncnn3c2Cl)c1` [Example 17], the results for the MIC in experiment [1], in experiment [2] and in experiment [4] were 25 µg/mL (≈ 88.3 µM), 0.78 µg/mL (≈ 2.76 µM) and 12.5 µg/mL (≈ 44.2 µM), respectively. The “Fungicidal Activity PHI (disease control rating)” value (shortened to “Fungicidal Activity PHI”) in experiment [3] is 2 (greater than 80% disease control).
For the compound `COc1ccc(-c2c(Cl)nc3ncnn3c2Cl)cc1` [Example 38], the pest or weed control at 500 µg/mL in experiment [5] and in experiment [6] was 42% each time.
On to `FC(F)(F)c1cccc(-c2c(Cl)nc3ncnn3c2Cl)c1` [Example 7], for which the pest or weed control at 500 µg/mL was 25% in experiment [5] and 58% in experiment [6]. Also, the “Fungicidal Activity PHI” value in experiment [3] is listed as 2 (greater than 80% disease control).
Turning to `Clc1nc2ncnn2c(Cl)c1-c1ccc2ccccc2c1` [Example 10], in experiment [3], the “Fungicidal Activity PHI” value is reported as 2 (greater than 80% disease control).
As for `FC(F)(F)Oc1ccc(-c2c(Cl)nc3ncnn3c2Cl)cc1` [Example 9], the pest or weed control at 500 µg/mL came out at 25% in experiment [5] and 50% in experiment [6]. The figures for the MIC in experiment [1], in experiment [2] and in experiment [4] were 12.5 µg/mL (≈ 35.8 µM), 0.1 µg/mL (≈ 0.286 µM) and 0.78 µg/mL (≈ 2.23 µM), respectively. Also, the “Fungicidal Activity PHI” value in experiment [3] is given as 2 (greater than 80% disease control).
In the case of `Clc1nc2ncnn2c(Cl)c1-c1ccc(Br)cc1` [Example 19], the results for the MIC in experiment [1], in experiment [2] and in experiment [4] were 12.5 µg/mL (≈ 36.3 µM), 0.1 µg/mL (≈ 0.291 µM) and 6.25 µg/mL (≈ 18.2 µM), respectively. Moreover, the “Fungicidal Activity PHI” value in experiment [3] is reported as 2 (greater than 80% disease control).
In the case of `Clc1nc2ncnn2c(Cl)c1-c1ccccc1Br` [Example 18], the “Fungicidal Activity PHI” value in experiment [3] is reported as 2 (greater than 80% disease control).
For the compound `CC(C)(C)c1ccc(-c2c(Cl)nc3ncnn3c2Cl)cc1` [Example 36], the MIC (as a rule, the smallest concentration in the dilution series that meets the test's criterion for growth inhibition) in experiment [1] was determined as 3.13 µg/mL (≈ 9.74 µM); in experiment [2], 0.78 µg/mL (≈ 2.43 µM); in experiment [4], 0.39 µg/mL (≈ 1.21 µM).
Consider `Clc1nc2ncnn2c(Cl)c1-c1ccc(-c2ccccc2)cc1` [Example 13], for which the MIC in experiment [1] was more than 100 µg/mL; in experiment [2], 0.39 µg/mL (≈ 1.14 µM); in experiment [4], 6.25 µg/mL (≈ 18.3 µM). Also, the “Fungicidal Activity PHI” value in experiment [3] is reported as 2 (greater than 80% disease control).
On to `Clc1nc2ncnn2c(Cl)c1-c1cccc2ccccc12` [Example 23], for which, in experiment [3], the “Fungicidal Activity PHI” value is 1 (about 50-80% disease control).
In the case of `Clc1ccccc1-c1c(Cl)nc2ncnn2c1Cl` [Example 1, 5,7-dichloro-6-(2-chlorophenyl)-1,2,4-triazolo-[1,5a]pyrimidine], the MIC in experiment [1] stood at 25 µg/mL (≈ 83.5 µM); in experiment [2] it was 3.13 µg/mL (≈ 10.4 µM); in experiment [4], 1.56 µg/mL (≈ 5.21 µM). Also, in experiment [3], the “Fungicidal Activity PHI” value is given as 2 (greater than 80% disease control).
In the case of `Fc1ccccc1-c1c(Cl)nc2ncnn2c1Cl` [Example 16], the pest or weed control at 500 µg/mL worked out at 42% in experiment [5] and 50% in experiment [6]. Further, the “Fungicidal Activity PHI” value in experiment [3] is reported as 2 (greater than 80% disease control).
`COc1cccc(-c2c(Cl)nc3ncnn3c2Cl)c1OC` [Example 21]: in experiment [3], the “Fungicidal Activity PHI” value is listed as 2 (greater than 80% disease control).
Consider `CCOc1ccc(-c2c(Cl)nc3ncnn3c2Cl)cc1` [Example 3], for which the MIC in experiment [1] came to 6.25 µg/mL (≈ 20.2 µM); in experiment [2] it was 0.2 µg/mL (≈ 0.647 µM); in experiment [4], 0.78 µg/mL (≈ 2.52 µM).
As for `Cc1ccc(-c2c(Cl)nc3ncnn3c2Cl)cc1C` [Example 31], the values for the MIC in experiment [1], in experiment [2] and in experiment [4] were 12.5 µg/mL (≈ 42.6 µM), 0.78 µg/mL (≈ 2.66 µM) and 3.13 µg/mL (≈ 10.7 µM), respectively.
In the case of `COc1ccc(-c2c(Cl)nc3ncnn3c2Cl)cc1OC` [Example 14], the values for the MIC in experiment [1], in experiment [2] and in experiment [4] were 25 µg/mL (≈ 76.9 µM), 0.78 µg/mL (≈ 2.4 µM) and 6.25 µg/mL (≈ 19.2 µM), respectively. For the same compound, in experiment [3], the “Fungicidal Activity PHI” value is listed as 2 (greater than 80% disease control).
As for `Clc1nc2ncnn2c(Cl)c1-c1ccc(Oc2ccccc2)cc1` [Example 12], the pest or weed control at 500 µg/mL amounted to 33% in experiment [5] and 67% in experiment [6].
